# Assay: Concentration dependent inactivation of gGamma-amino-N-butyrate transaminase
smiles,measurement,value
N[C@@H]1C=CC[C@H](C(=O)O)C1 [5-Amino-cyclohex-3-enecarboxylic acid],Ki,2300 µM

# From BindingDB's records for doi:10.1021/jm020134i (Northwestern University, 2002)
